Assay [1] in a line: microbe, parasite or virus in culture. The class given is functional. To be noted: Mycobacterium tuberculosis.
Assay [2] is described as follows: Vero cell cytotoxicity, dose response, cytotoxicity control for M. tuberculosis growth inhibitor project, Vero cells, purified and synthesized compounds, set 5 (AID 504909). The class given is functional. To be noted: Mycobacterium tuberculosis.
In assay [3] the target is T1, Corticotropin-releasing factor receptor 2/Corticotropin-releasing factor-binding protein (Homo sapiens, UniProt P24387+Q13324).
T1 sequence (Q13324 whole entry): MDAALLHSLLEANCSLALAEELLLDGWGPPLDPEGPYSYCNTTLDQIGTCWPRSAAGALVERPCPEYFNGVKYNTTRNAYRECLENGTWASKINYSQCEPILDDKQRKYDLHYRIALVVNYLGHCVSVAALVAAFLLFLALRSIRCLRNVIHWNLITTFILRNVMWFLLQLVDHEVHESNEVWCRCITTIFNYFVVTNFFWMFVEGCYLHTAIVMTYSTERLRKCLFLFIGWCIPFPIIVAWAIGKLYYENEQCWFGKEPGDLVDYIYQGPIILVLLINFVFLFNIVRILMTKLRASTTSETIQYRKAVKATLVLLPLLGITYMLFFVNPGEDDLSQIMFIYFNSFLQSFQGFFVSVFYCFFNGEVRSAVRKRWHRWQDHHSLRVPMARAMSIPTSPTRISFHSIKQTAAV
T1 sequence (P24387 whole entry): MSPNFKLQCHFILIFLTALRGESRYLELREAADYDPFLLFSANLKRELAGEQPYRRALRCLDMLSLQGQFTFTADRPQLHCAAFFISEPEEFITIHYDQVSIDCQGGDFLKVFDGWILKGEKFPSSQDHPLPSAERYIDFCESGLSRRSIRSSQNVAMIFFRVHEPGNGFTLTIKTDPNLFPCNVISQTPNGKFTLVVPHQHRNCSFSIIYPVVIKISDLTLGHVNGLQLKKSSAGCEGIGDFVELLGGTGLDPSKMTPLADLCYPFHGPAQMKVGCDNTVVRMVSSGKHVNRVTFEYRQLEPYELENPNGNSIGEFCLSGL
The assay is described as follows: Dose Response confirmation of uHTS hits for small molecule antagonists of the CRF-binding protein and CRF-R2 receptor complex. The class given is functional. Conditions: read-out: IC50_Mean.

A short description of assay [4]: A Cell Based Secondary Assay to Explore Cytotoxicity in THP-1 Cells of Compounds that Modulate Mycobacterium tuberculosis in Media Containing Glycerol versus Media without Glycerol (2). The class given is functional.
Assay [5] is described as follows: Vero cell cytotoxicity, cytotoxicity control for M. tuberculosis inhibitor project, purified and synthesized samples, set 3 (AID 504684). The class given is functional. Conditions: […].
Assay [6] in a line: HepG2 cell cytotoxicity, cytotoxicity control, set 4 (AID 504910). Conditions: Mycobacterium tuberculosis. The class given is functional.
The nature of assay [7]: THP-1 cell cytotoxicity, cytotoxicity control, set 4 (AID 504911). The class given is functional. To be noted: Mycobacterium tuberculosis.
The nature of assay [8]: A Cell Based Secondary Assay to Explore Cytotoxicity in HepG2 Cells of Compounds that Modulate Mycobacterium tuberculosis in Media Containing Glycerol versus Media without Glycerol (2). The class given is functional.
Assay [9] deals with T1, Corticotropin-releasing factor receptor 2/Corticotropin-releasing factor-binding protein. As to the kind of experiment: activators of CRF receptor 2 with binding protein – uHTS hits, confirmation (AID 602473). The class given is functional. To be noted: read-out: EC50_Mean.
Assay [10] is described as follows: HepG2 cell cytotoxicity, dose response, cytotoxicity control, set 3 (AID 504853). The class given is functional. Conditions: Mycobacterium tuberculosis.
Assay [11] is described as follows: THP-1 cell cytotoxicity, dose response, cytotoxicity control, set 3 (AID 504852). The class given is functional. Conditions: Mycobacterium tuberculosis.
The nature of assay [12]: Vero cell cytotoxicity, dose response, cytotoxicity control for M. tuberculosis growth inhibitor project, Vero cells, purified and synthesized compounds, set 4 (AID 504854). To be noted: Mycobacterium tuberculosis. The class given is functional.
The nature of assay [13]: CRF-BP/CRF-R2 complex antagonists, dose response, cell-based, uHTS hits, 384-well (AID 651639). The class given is functional, Homo sapiens. Conditions: read-out: IC50_Mean.

Activity calls are given as the source filed them. Bounds are passed on as bounds.

Consider `Cc1ccc(C(=O)N/N=C(/CC(=O)c2cccs2)C(F)(F)F)cc1`, for which the CC50 in [1] is 28.2 µM (active); in assay [2], 34.4 µM (active); in [4], 89.8 µM (active); in [5], 61.7 µM (active); in [6] it was 38.8 µM (active); in assay [7] it was 46.3 µM (active). The CC50 is 35 µM (active) in assay [8], > 50 µM (active) in [10], 51.4 µM (active) in [11] and 55 µM (active) in assay [12]. The results for the IC50 in assay [3] and in assay [13] were 4.48 µM (active) and 16 µM (active), respectively. In addition, the EC50 in assay [9] was > 53 µM (inactive).

Source of the values: ChEMBL document CHEMBL1201862, “PubChem BioAssay data set” (2004).
